# Assay results: PMC4621012 (Molecules, 2014)
# Molecular target: GRK5 (Bos taurus, UniProt P43249)
# Test: DSF (ThermoFluor, ANS) melting point shift, dose response, reconfirmed by replating; no Kd
# Assay type: binding
# Sequence of GRK5 (P43249 whole entry): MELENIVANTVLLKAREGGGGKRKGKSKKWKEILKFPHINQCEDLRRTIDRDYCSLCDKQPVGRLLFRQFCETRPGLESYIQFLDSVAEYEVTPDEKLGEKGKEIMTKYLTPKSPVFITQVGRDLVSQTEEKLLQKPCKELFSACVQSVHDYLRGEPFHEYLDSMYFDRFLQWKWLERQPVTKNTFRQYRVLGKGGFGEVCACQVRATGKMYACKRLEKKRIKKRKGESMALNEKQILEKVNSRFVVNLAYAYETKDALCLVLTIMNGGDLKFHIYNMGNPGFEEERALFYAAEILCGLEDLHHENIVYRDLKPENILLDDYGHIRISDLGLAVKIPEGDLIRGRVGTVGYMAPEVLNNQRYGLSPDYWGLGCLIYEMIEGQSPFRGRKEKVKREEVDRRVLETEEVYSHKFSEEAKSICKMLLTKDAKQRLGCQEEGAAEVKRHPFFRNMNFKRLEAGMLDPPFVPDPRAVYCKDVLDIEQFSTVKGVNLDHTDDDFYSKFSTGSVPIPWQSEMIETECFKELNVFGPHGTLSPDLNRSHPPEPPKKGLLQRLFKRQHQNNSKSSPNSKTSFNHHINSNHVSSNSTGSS
compound,measurement,value
CN[C@@H]1C[C@H]2O[C@@](C)([C@@H]1OC)n1c3ccccc3c3c4c(c5c6ccccc6n2c5c31)C(=O)NC4 [staurosporine],"DSF (ThermoFluor, ANS) melting point shift, dose response, reconfirmed by replat","Staurosporine, which served effectively as a positive control, was not analyzed further."
